For assay [1], the target named is T1, human dopamine D3 receptor (Homo sapiens, UniProt P35462).
T1 construct: expressed in transfected cells
Nature of the assay: human D2 and D3 receptor binding study (D3). As for the experimental part:
(§1) A. In vitro: human D2 and D3 receptor binding study
(§2) CHO (Chinese Hamster Ovary) cells are transfected in a stable manner with the gene encoding the human dopamine D2 or D3 receptor in accordance with methods known from the literature. The native cells are deficient in the enzyme DHFR (DiHydroFolate Reductase). […] The transfections are carried out using Lipofectin (Gibco). The CHO cells co-transfected with the human D2 receptor and the phleomycin resistance gene are selected for their resistance to the presence of that antibiotic in the culture medium. The cells transfected with the human D3 receptor are selected in the presence of methotrexate in a medium containing no hypoxanthine/thymidine. The compositions of the culture media used are: for CHO-D2 : DMEM (Dulbecco's Modified Eagle Medium) supplemented with 10% foetal calf serum and hypoxanthine/thymidine; and for CHO-D3 : DMEM supplemented with 10% dialysed foetal calf serum. The cells are harvested at confluence and the membranes are then prepared.
(§3) After a few minutes in the presence of 0.2% trypsin, the cells are recovered and centrifuged at 2,000 g for 5 minutes. […]
(§4) The ranges of concentration of each compound include at least seven points determined in triplicate, each experiment being repeated at least twice.
(§5) The recovered filters are then counted using a gamma counter. […]

In assay [2] the target is T2, human dopamine D2 receptor (Homo sapiens, UniProt P14416).
T2 construct: expressed in transfected cells
Nature of the assay: human D2 and D3 receptor binding study (D2). As for the experimental part: as §1, §2, §3, §4, §5

The subject of assay [3] is dopaminergic cells in the ventral tegmentum area of the rat. Nature of the assay: Test recording the unitary extracellular electrical activity in the ventral tegmentum area of the rat. The assay is classed as in vivo. To be noted: n = 4. As to the method:
1. Test recording the unitary extracellular electrical activity in the ventral tegmentum area of the rat
The administration of a dopaminergic agonist decreases the discharge frequency of neurons in a dose-dependent manner. That effect is reversed by haloperidol, a dopaminergic antagonist.
The rats are anaesthetised with chloral hydrate (400 mg/kg, i.p.) and placed in a stereotactic apparatus (Unimecanique, France) after catheterisation of the femoral vein. The level of anaesthesia is maintained by i.p. administration of chloral hydrate every hour; the rectal temperature is maintained at 37±1° C. by means of a thermostatically controlled heated cover. A tungsten microelectrode (10 M.OMEGA., 1 μm) is inserted using an electronic microinsertion device (Unimecanique, France) into the ventral tegmentum area (AP: -5.5/bregma; L: 0.7; H: 7.0-8.5/dura; Paxinos and Watson atlas, 1986). The potentials of the dopaminergic cells are recognised by their morphology (triphasic potentials+/-/+, of a duration greater than 3 msec), their discharge rhythm, whether regular or in bursts of decreasing amplitude, and their discharge frequency, which is from 2 to 8 Hz. A single cell per animal is used for the recording.
After a period≥5 min. (basal activity) and a first injection of carrier (distilled water to which a few drops of dilute lactic acid have been added; pH adjusted to 5 with 1N NaOH), the products of the invention are administered intravenously in cumulatively increasing doses at intervals of 2-3 min..
Acquisition of the data is effected by the software Spike2 (Cambridge Electronic Design, England). The discharge frequency is measured over one minute at the maximum variation between each injection and is expressed as a percentage variation in relation to the basal activity (average of the 5 minutes preceding the first treatment) defined as 100%. The effect of the products is evaluated statistically by a variance analysis over repeated measurements, followed by a Newman-Keuls test for comparing the effects of different doses with the effect of the carrier.

The next assay is described as follows: Forced swimming test. The class given is in vivo, rat. An excerpt:
The forced swimming test (Porsolt R. et al, Eur. J. Pharmacol., 1978, 47, 379-91) is a behavioural test which comprises inducing a state of despair in the rat by placing the naive animal in an enclosure full of water, from which it cannot escape, for a period of fifteen minutes. For the first five to ten minutes the rat struggles vigorously, but finally adopts an immobile posture during the last part of the test. Placed in the same enclosure the next day, the animal remains immobile for the majority of the test (5 minutes' duration). The anti-depressants reduce the duration of immobility of the rat during the test.
The experiment is carried out over two days, with a 24-hour interval, on rats of an average weight of 170 g, housed the day before in individual cages, with free access to food and drink.
On the first day, each rat is placed for fifteen minutes in a glass cylinder (20 cm diameter ×40 cm high) filled to a height of 15 cm with water maintained at 25° C. On the second day, the animal is placed in a cylinder again for a period of five minutes; the total period of immobility (in seconds) of the rat is measured. The product or solvent is administered to the animal thirty minutes before the beginning of the test.

The nature of assay [4]: "Rotations" induced by dopaminergic agonists in rats having a unilateral lesion of the Substantia nigra. The class given is in vivo, male Wistar rats. The following applies: Rattus norvegicus, sc; read-out: dose from which active in the rotation test.
[5] abbreviates: [125I]-iodosulpride, CHO membranes, 30 min at 30° C., pKi = -log Ki.

T2 sequence (P14416 whole entry): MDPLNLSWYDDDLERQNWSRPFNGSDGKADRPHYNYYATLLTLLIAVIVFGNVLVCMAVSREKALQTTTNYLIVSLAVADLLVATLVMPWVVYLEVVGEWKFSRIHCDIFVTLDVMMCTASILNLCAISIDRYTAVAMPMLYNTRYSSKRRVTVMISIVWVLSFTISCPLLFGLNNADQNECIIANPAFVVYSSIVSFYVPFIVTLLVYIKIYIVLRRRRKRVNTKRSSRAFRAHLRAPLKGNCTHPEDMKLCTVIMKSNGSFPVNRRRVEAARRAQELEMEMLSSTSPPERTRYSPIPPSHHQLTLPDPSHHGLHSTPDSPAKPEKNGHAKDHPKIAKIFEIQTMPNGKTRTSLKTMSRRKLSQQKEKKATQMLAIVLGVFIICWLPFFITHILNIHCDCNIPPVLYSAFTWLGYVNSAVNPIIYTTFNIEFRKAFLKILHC
T1 sequence (P35462 whole entry): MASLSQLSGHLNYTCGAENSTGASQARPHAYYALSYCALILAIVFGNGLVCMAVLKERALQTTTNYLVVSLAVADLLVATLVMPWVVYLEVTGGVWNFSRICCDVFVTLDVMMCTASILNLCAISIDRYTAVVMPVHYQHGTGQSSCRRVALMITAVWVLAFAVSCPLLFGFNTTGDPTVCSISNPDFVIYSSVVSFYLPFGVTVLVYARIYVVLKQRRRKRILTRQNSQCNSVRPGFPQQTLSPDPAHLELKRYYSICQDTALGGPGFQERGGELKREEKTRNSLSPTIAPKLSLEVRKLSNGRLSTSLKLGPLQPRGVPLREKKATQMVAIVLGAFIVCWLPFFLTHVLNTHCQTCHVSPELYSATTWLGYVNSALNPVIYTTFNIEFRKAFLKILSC

On to `CCCN1CCO[C@@H]2c3cc(C(N)=O)ccc3CC[C@H]21` (single isomer, unassigned) [Example 3, (+)-Trans-3,4,4a,5,6,10b-hexahydro-9-carbamoyl-4-propyl-2H-naphtho[1,2-b]-1,4-oxazine], for which the Ki in assay [1] (setting [5]) was 10 nM; in assay [2] (setting [5]), 316 nM. In addition, the “discharge frequency, percentage in relation to basal activity (100%)” value in assay [3] (0.5 μg/kg i.v., cumulative doses, mean ± standard error of the mean) came to 80.4 ± 5.54%; in assay [3] (1 μg/kg i.v., cumulative doses, mean ± standard error of the mean, p ≤ 0.05), 56.6 ± 11.4%; in assay [3] (2 μg/kg i.v., cumulative doses, mean ± standard error of the mean, p ≤ 0.05), 25.0 ± 8.68%; in assay [3] (4 μg/kg i.v., cumulative doses, mean ± standard error of the mean, p ≤ 0.05), 1.56 ± 1.12%; in assay [3] (8 μg/kg i.v., cumulative doses, p ≤ 0.05), 0.00%. For the same compound, in the assay “Forced swimming test” (Rattus norvegicus, sc, read-out: ID50 (period of immobility)), the ED50 stood at 0.41 mg/kg. For the same compound, the “period of immobility (result in words)” value in “Forced swimming test” (s.c.) was “reduces the period of immobility of the animal in a dose-dependent manner”. In assay [4], the minimal effective dose was found to be 0.04 mg/kg.
In the case of `O=C(CCCN1CCC(O)(c2ccc(Cl)cc2)CC1)c1ccc(F)cc1` [haloperidol, reference compound], the “discharge frequency, percentage in relation to basal activity (100%)” value in assay [3] (haloperidol 16 μg/kg i.v., reversal after cumulative doses of Example 3, mean ± standard error of the mean) turned out to be 110.5 ± 14.9%.
As to “[^125 I]-iodosulpride [[125I]-iodosulpride, reference compound]”, the Kd was 1.31 nM in assay [1] (radioligand, read-out: Kd (dissociation constant) for the human D3 receptor) and 0.5 nM in assay [2] (radioligand, read-out: Kd (dissociation constant) for the human D2 receptor).

The values above are taken from US6025356A, “Disubstituted trans-3,4,4a,5,6,10b-hexahydro-2H-naphth[1,2-b]-1,4-oxazines” (Adir et Compagnie, priority 1997, dated 2000).
